Laboratory results from patent US5336763A, “Trisazo dye and dye composition containing the same” (Orient Chemical Industries, Ltd., priority 1992, dated 1994).
Read-outs that look alike come from different tables or passages of the source.

Test system: strains TA98
Type: cell-based
Conditions: for AMES evaluation: strains TA98
Procedure: Regarding various specimen solutions respectively containing trisazo dyes obtained in Examples 1 to 11 to the present invention and dyes of Comparative Examples 1 to 3, the number of mutant colonies was determined using strains TA98. 2. When the ratio is less than 2, it is "negative" and, when the ratio is more than 2, it is "positive", and the results are shown in Table. 1.

Row | SMILES | Ames test: ratio of number of colonies to control (20 μg/plate, with S-9) | Ames test: ratio of number of colonies to control (20 μg/plate, without S-9) | Ames test: ratio of number of colonies to control (78 μg/plate, with S-9) | Ames test: ratio of number of colonies to control (78 μg/plate, without S-9) | Ames test: ratio of number of colonies to control (313 μg/plate, with S-9) | Ames test: ratio of number of colonies to control (313 μg/plate, without S-9) | Ames test: ratio of number of colonies to control (1250 μg/plate, with S-9) | Ames test: ratio of number of colonies to control (1250 μg/plate, without S-9) | Ames test: ratio of number of colonies to control (5000 μg/plate, with S-9) | Ames test: ratio of number of colonies to control (5000 μg/plate, without S-9) | AMES evaluation
1 | Nc1ccc(N=Nc2ccc(Oc3cccc(Oc4ccc(N=Nc5c(S(=O)(=O)O)cc6cc(S(=O)(=O)O)c(N=Nc7ccccc7)c(O)c6c5N)cc4)c3)cc2)c(O)c1 [Ex. 1] | 1.13 | 0.76 | 0.94 | 0.86 | 1.06 | 0.86 | 0.53 | 0.76 | 0.59 | 0.71 | Negative (When the ratio is less than 2, it is "negative")
2 | Nc1c(N=Nc2ccc(Oc3cccc(Oc4ccc(N=Nc5ccc(O)cc5O)cc4)c3)cc2)c(S(=O)(=O)O)cc2cc(S(=O)(=O)O)c(N=Nc3ccccc3)c(O)c12 [Ex. 2] | 1.34 | 1.07 | 1.19 | 1.20 | 1.39 | 1.02 | 1.28 | 1.16 | 1.27 | 1.28 | Negative (When the ratio is less than 2, it is "negative")
3 | CCC(C)c1ccc(N=Nc2c(S(=O)(=O)O)cc3cc(S(=O)(=O)O)c(N=Nc4ccc(Oc5cccc(Oc6ccc(N=Nc7ccc(O)cc7O)cc6)c5)cc4)c(N)c3c2O)cc1 (stereo not shown) [Ex. 3] | 1.32 | 0.76 | 1.79 | 0.86 | 1.59 | 0.86 | 0.76 | 1.10 | 0.56 | 0.95 | Negative (When the ratio is less than 2, it is "negative")
4 | Nc1ccc(N=Nc2ccc(Oc3ccc(Oc4ccc(N=Nc5c(S(=O)(=O)O)cc6cc(S(=O)(=O)O)c(N=Nc7ccccc7)c(O)c6c5N)cc4)cc3)cc2)c(O)c1 [Ex. 4] | 1.04 | 0.88 | 1.23 | 0.79 | 0.99 | 0.96 | 0.88 | 1.15 | 0.90 | 0.92 | Negative (When the ratio is less than 2, it is "negative")
5 | Nc1c(N=Nc2ccc(Oc3ccc(Oc4ccc(N=Nc5ccc(O)cc5O)cc4)cc3)cc2)c(S(=O)(=O)O)cc2cc(S(=O)(=O)O)c(N=Nc3ccccc3)c(O)c12 [Ex. 5] | 0.93 | 0.89 | 1.04 | 0.95 | 0.86 | 0.63 | 1.04 | 0.79 | 0.57 | 0.68 | Negative (When the ratio is less than 2, it is "negative")
